In general, EC50 refers to the concentration needed to bring the measured effect to its halfway point.

The target in this test is T1, hGPR120 (Homo sapiens, UniProt Q5NUL3).
T1 construct: expressed in transfected cells; host or cells: CHO-K1
T1 sequence (Q5NUL3 1-361): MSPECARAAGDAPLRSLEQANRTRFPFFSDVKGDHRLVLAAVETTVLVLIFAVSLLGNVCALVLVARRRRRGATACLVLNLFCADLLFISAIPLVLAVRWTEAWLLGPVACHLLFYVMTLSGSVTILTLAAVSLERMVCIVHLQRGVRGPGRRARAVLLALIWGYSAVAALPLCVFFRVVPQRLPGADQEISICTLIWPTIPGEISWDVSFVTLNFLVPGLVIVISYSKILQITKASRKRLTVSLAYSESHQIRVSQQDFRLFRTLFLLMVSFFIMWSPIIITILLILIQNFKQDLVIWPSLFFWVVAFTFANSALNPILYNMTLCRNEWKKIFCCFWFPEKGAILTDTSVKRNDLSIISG
In words: Measurement of Activity of GPR120 Agonist (Cell-Based Assay), Calcium 5 dye fluorescence. Particulars: CHO-K1 cells expressing Ga16 and hGPR120. Put shortly: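 Agonist-evoked calcium signal, expressed as percent relative to DMSO-only wells, read at 485/525 nm after serial-dilution addition (0.5% DMSO final). Cells were hGPR120/Gα16 CHO-K1, seeded 18 h earlier and dye-loaded for 1 h at 37°C.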
With `CC(C)Nc1cncc(-c2cc(F)c(N3CCC(CC(=O)O)CC3)c(F)c2)n1` [Example 354, 2-[1-[2,6-difluoro-4-[6-(isopropylamino)pyrazin-2-yl]phenyl]-4-piperidyl]acetic acid], the half-maximal effective concentration (EC50) fell in the range of 200 to 2000 nM.

As for `CCN(CC)c1cncc(-c2cc(F)c(N3CCC(CC(=O)O)CC3)c(F)c2)n1` [Example 355, 2-[1-[4-[6-(diethylamino)pyrazin-2-yl]-2,6-difluoro-phenyl]-4-piperidyl]acetic acid], the 50% effective concentration (EC50) fell in the range of 2000 to 20000 nM.

Regarding `CC(C)CNc1cncc(-c2cc(F)c(N3CCC(CC(=O)O)CC3)c(F)c2)n1` [Example 356, 2-[1-[2,6-difluoro-4-[6-(isobutylamino)pyrazin-2-yl]phenyl]-4-piperidyl]acetic acid], the concentration giving a half-maximal response (EC50) lay within 200 to 2000 nM.

`O=C(O)CC1CCN(c2c(F)cc(-c3cncc(NC4CCCC4)n3)cc2F)CC1` [Example 357, 2-[1-[4-[6-(cyclopentylamino)pyrazin-2-yl]-2,6-difluoro-phenyl]-4-piperidyl]acetic acid]: the concentration for a half-maximal effect (EC50) is 200 to 2000 nM.

As to `O=C(O)CC1CCN(c2c(F)cc(-c3cccc(NC4CCCC4)n3)cc2F)CC1` [Example 358, 2-[1-[4-[6-(cyclopentylamino)-2-pyridyl]-2,6-difluoro-phenyl]-4-piperidyl]acetic acid], the concentration for a half-maximal effect (EC50) lay in the range of 200 to 2000 nM.

Consider `CC(C)CNc1ccnc(-c2cc(F)c(N3CCC(CC(=O)O)CC3)c(F)c2)n1` [Example 360, 2-[1-[2,6-difluoro-4-[4-(isobutylamino)pyrimidin-2-yl]phenyl]-4-piperidyl]acetic acid], for which the concentration for a half-maximal effect (EC50) fell in the range of 200 to 2000 nM.

Turning to `Cc1ncc(-c2cc(F)c(N3CCC(CC(=O)O)CC3)c(F)c2)nc1OC1CCC1` [Example 361, 2-[1-[4-[6-(cyclobutoxy)-5-methyl-pyrazin-2-yl]-2,6-difluoro-phenyl]-4-piperidyl]acetic acid], the 50% effective concentration (EC50) lay within 200 to 2000 nM.

As for `O=C(O)CC1CCN(c2c(F)cc(-c3cncc(C4CCCC4)n3)cc2F)CC1` [Example 363, 2-[1-[4-(6-cyclopentylpyrazin-2-yl)-2,6-difluoro-phenyl]-4-piperidyl]acetic acid], the EC50 is under 200 nM.

`CC(C)Cc1cncc(-c2cc(F)c(N3CCC(CC(=O)O)CC3)c(F)c2)n1` [Example 364, 2-[1-[2,6-difluoro-4-(6-isobutylpyrazin-2-yl)phenyl]-4-piperidyl]acetic acid]: the EC50 is 200 to 2000 nM.

Turning to `CC(C)Cc1ccnc(-c2cc(F)c(N3CCC(CC(=O)O)CC3)c(F)c2)n1` [Example 365, 2-[1-[2,6-difluoro-4-(4-isobutylpyrimidin-2-yl)phenyl]-4-piperidyl]acetic acid], the concentration giving a half-maximal response (EC50) was 200 to 2000 nM.

For `Cc1nsc(OC2CCC2)c1-c1cc(F)c(N2CCC(CC(=O)O)CC2)c(F)c1` [Example 366, 2-[1-[4-[5-(cyclobutoxy)-3-methyl-isothiazol-4-yl]-2,6-difluoro-phenyl]-4-piperidyl]acetic acid], the EC50 lay in the range of 200 to 2000 nM.

With `CCOc1csc(-c2cc(F)c(N3CCC(CC(=O)O)CC3)c(F)c2)n1` [Example 367, {1-[4-(4-ethoxy-thiazol-2-yl)-2,6-difluoro-phenyl]-piperidin-4-yl}acetic acid], the EC50 lay in the range of 200 to 2000 nM.

Turning to `CCOc1nc(-c2cc(F)c(N3CCC(CC(=O)O)CC3)c(F)c2)sc1C` [Example 368, {1-[4-(4-ethoxy-5-methyl-thiazol-2-yl)-2,6-difluoro-phenyl]-piperidin-4-yl}acetic acid], the 50% effective concentration (EC50) was 200 to 2000 nM.

With `CCCCc1cncc(-c2cc(F)c(N3CCC(CC(=O)O)CC3)c(F)c2)n1` [Example 369, 2-[1-[4-(6-butylpyrazin-2-yl)-2,6-difluoro-phenyl]-4-piperidyl]acetic acid], the EC50 is under 200 nM.

For `CC(C)CCc1cncc(-c2cc(F)c(N3CCC(CC(=O)O)CC3)c(F)c2)n1` [Example 370, 2-[1-[2,6-difluoro-4-(6-isopentylpyrazin-2-yl)phenyl]-4-piperidyl]acetic acid], the concentration giving a half-maximal response (EC50) is 200 to 2000 nM.

As for `O=C(O)CC1CCN(c2c(F)cc(-c3ncc(F)c(OC4CCC4)n3)cc2F)CC1` [Example 371, 2-[1-[4-[4-(cyclobutoxy)-5-fluoro-pyrimidin-2-yl]-2,6-difluoro-phenyl]-4-piperidyl]acetic acid], the EC50 was under 200 nM.

`O=C(O)CC1CCN(c2c(F)cc(-c3ncc(F)c(OCC4CC4)n3)cc2F)CC1` [Example 372, 2-[1-[4-[4-(cyclopropylmethoxy)-5-fluoro-pyrimidin-2-yl]-2,6-difluoro-phenyl]-4-piperidyl]acetic acid]: the EC50 was under 200 nM.

`O=C(O)CC1CCN(c2c(F)cc(-c3cccc(C4CCC4)n3)cc2F)CC1` [Example 373, 2-[1-[4-(6-cyclobutyl-2-pyridyl)-2,6-difluoro-phenyl]-4-piperidyl]acetic acid]: the half-maximal effective concentration (EC50) is 200 to 2000 nM.

For the compound `O=C(O)CC1CCN(c2c(F)cc(-c3cncc(C4CCC4)n3)cc2F)CC1` [Example 374, 2-[1-[4-(6-cyclobutylpyrazin-2-yl)-2,6-difluoro-phenyl]-4-piperidyl]acetic acid], the EC50 is under 200 nM.

Consider `O=C(O)CC1CCN(c2c(F)cc(-c3cccc(CC4CCC4)n3)cc2F)CC1` [Example 375, 2-[1-[4-[6-(cyclobutylmethyl)-2-pyridyl]-2,6-difluoro-phenyl]-4-piperidyl]acetic acid], for which the EC50 lay in the range of 200 to 2000 nM.

As for `O=C(O)CC1CCN(c2c(F)cc(-c3cccc(CC4CCCC4)n3)cc2F)CC1` [Example 376, 2-[1-[4-[6-(cyclopentylmethyl)-2-pyridyl]-2,6-difluoro-phenyl]-4-piperidyl]acetic acid], the EC50 lay in the range of 200 to 2000 nM.

On to `O=C(O)CC1CCN(c2c(F)cc(-c3nc(OCC4CC4)cs3)cc2F)CC1` [Example 377, {1-[4-(4-cyclopropylmethoxy-thiazol-2-yl)-2,6-difluoro-phenyl]-piperidin-4-yl}acetic acid], for which the 50% effective concentration (EC50) was under 200 nM.

For `O=C(O)CC1CCN(c2c(F)cc(-c3nc(OC4CCC4)cs3)cc2F)CC1` [Example 379, {1-[4-(4-cyclobutoxy-thiazol-2-yl)-2,6-difluoro-phenyl]-piperidin-4-yl}acetic acid], the 50% effective concentration (EC50) is under 200 nM.

Take `CCCCOc1csc(-c2cc(F)c(N3CCC(CC(=O)O)CC3)c(F)c2)n1` [Example 380, {1-[4-(4-butoxy-thiazol-2-yl)-2,6-difluoro-phenyl]-piperidin-4-yl}acetic acid]: the concentration giving a half-maximal response (EC50) lay in the range of 200 to 2000 nM.

With `O=C(O)CC1CCN(c2c(F)cc(-c3ncnc4c3CCC4)cc2F)CC1` [Example 382, 2-[1-[4-(6,7-dihydro-5H-cyclopenta[d]pyrimidin-4-yl)-2,6-difluoro-phenyl]-4-piperidyl]acetic acid], the concentration giving a half-maximal response (EC50) is over 20000 nM.

As to `Cc1nc(-c2cc(F)c(N3CCC(CC(=O)O)CC3)c(F)c2)nc(OC2CCC2)c1C` [Example 384, 2-[1-[4-[4-(cyclobutoxy)-5,6-dimethyl-pyrimidin-2-yl]-2,6-difluoro-phenyl]-4-piperidyl]acetic acid], the EC50 lay in the range of 2000 to 20000 nM.

With `O=C(O)CCCOc1c(F)cc(-c2cccc(OC3CCC3)n2)cc1Cl` [Example 385, 4-[2-chloro-4-[6-(cyclobutoxy)-2-pyridyl]-6-fluoro-phenoxy]butanoic acid], the EC50 is under 200 nM.

Take `O=C(O)CCCOc1c(Cl)cc(-c2cccc(OC3CCC3)n2)cc1Cl` [Example 386, 4-[2,6-dichloro-4-[6-(cyclobutoxy)-2-pyridyl]phenoxy]butanoic acid]: the EC50 was under 200 nM.

For the compound `O=C(O)CCCOc1c(F)cc(-c2occc2COCC2CC2)cc1F` [Example 387, 4-[4-[3-(cyclopropylmethoxymethyl)-2-furyl]-2,6-difluoro-phenoxy]butanoic acid], the concentration for a half-maximal effect (EC50) is under 200 nM.

In the case of `O=C(O)CCCOc1c(F)cc(-c2cccc(COCC3CC3)n2)cc1F` [Example 388, 4-[4-[6-(cyclopropylmethoxymethyl)-2-pyridyl]-2,6-difluoro-phenoxy]butanoic acid], the EC50 was 200 to 2000 nM.

For `O=C(O)CCCOc1c(F)cc(-c2cc(F)cc(OC3CCC3)c2)cc1Cl` [Example 389, 4-[2-chloro-4-[3-(cyclobutoxy)-5-fluoro-phenyl]-6-fluoro-phenoxy]butanoic acid], the concentration for a half-maximal effect (EC50) was under 200 nM.

For the compound `Cc1onc(COCC2CC2)c1-c1cc(F)c(OCCCC(=O)O)c(F)c1` [Example 390, 4-[4-[3-(cyclopropylmethoxymethyl)-5-methyl-isoxazol-4-yl]-2,6-difluoro-phenoxy]butanoic acid], the EC50 was over 20000 nM.

`Cc1cc(OC2CCC2)nc(-c2cc(F)c(OCCCC(=O)O)c(Cl)c2)n1` [Example 391, 4-[2-chloro-4-[4-(cyclobutoxy)-6-methyl-pyrimidin-2-yl]-6-fluoro-phenoxy]butanoic acid]: the EC50 was under 200 nM.

Turning to `Cc1cc(-c2cc(F)c(OCCCC(=O)O)c(Cl)c2)nc(OC2CCC2)n1` [Example 392, 4-[2-chloro-4-[2-(cyclobutoxy)-6-methyl-pyrimidin-4-yl]-6-fluoro-phenoxy]butanoic acid], the half-maximal effective concentration (EC50) is under 200 nM.

Turning to `O=C(O)CCCOc1c(F)cc(-c2cc(OC3CCC3)cc(Cl)n2)cc1F` [Example 393, 4-[4-[6-chloro-4-(cyclobutoxy)-2-pyridyl]-2,6-difluoro-phenoxy]butanoic acid], the 50% effective concentration (EC50) was under 200 nM.

Consider `O=C(O)CCCOc1c(F)cc(-c2csc(OC3CCC3)n2)cc1F` [Example 394, 4-[4-[2-(cyclobutoxy)thiazol-4-yl]-2,6-difluoro-phenoxy]butanoic acid], for which the half-maximal effective concentration (EC50) is under 200 nM.

The record behind these values is patent US11261186B2, “Biaryl derivative as GPR120 agonist” (LG CHEM, LTD., priority 2014, dated 2022).
